Assay results published in US12685725B2, “Pridopidine for the treatment of mitochondrial-associated diseases and disorders and endoplasmic reticulum (ER) stress” (PRILENIA NEUROTHERAPEUTICS LTD., priority 2019, dated 2026).
Where two headings read alike, the source gives them in different places.

Columns and labels:
[1] = tested on: S1R-dependence of eIF2α phosphorylation in HEK 293 cells; details: 8 h
Procedure: HEK 293 cells were transfected with plasmids carrying Cas9 and 3 different guide RNAs (gRNA) targeting human Sigma1-R and a control gRNA. Ten days after transfection and selection with puromycin, cell lysates of the pools of selected cells were tested for S1R knockout by immunoblotting. […] Subsequent cloning by dilution produced, after 4 weeks, several clones with complete knockout of Sigma1-R for each gRNA.
Cells were lysed in PBS containing 1% Triton X-100, 0.5% sodium deoxycholate with protease inhibitors and centrifuged to pellet insoluble aggregates, debris and nuclei. Phosphatase inhibitor cocktail 2 and 3 and 10 mM 0-glycerol phosphate were added to the lysis buffer to inhibit phosphatases for detection of phosphorylated proteins. Supernatants were separated from pellets and incubated in loading buffer for 5 min at 100° C., pellets were incubated for 10 min at 100° C. After SDS-PAGE and transfer to nitrocellulose membrane, blocking was done in 5% low-fat milk and 0.1% Tween-20 in PBS for 1 h. Incubation with the primary antibody was overnight at 4° C. and after three washes in 0.1% Tween-20 in PBS, incubation with the appropriate secondary antibody was for 1 h at room temperature. After washing, enhanced chemiluminescence assay was performed and the membrane was exposed and quantified in a Bio-Rad ChemiDocXRS Imaging System (Bio-Rad, Hercules, CA).

HD-NSCs = experiment: cells; details: Homo sapiens, 24 h, read-out: reduction of the increase in H2O2 levels induced by complex III inhibition
Procedure: NSCs were plated at 30,000 cells/well in 96-well assay plates coated with Geltex® for 24 h at 37° C. Afterwards, NSCs were incubated for another 24 h with 1 μM pridopidine. […] MitoPY1 fluorescence was obtained with a Microplate Spectrofluorometer Gemini EM (Molecular Devices, USA) using wavelength parameters described above. Basal levels were measured for 10-15 minutes followed by exposure to 3 μM myxothiazol (mitochondrial complex III inhibitor. Sigma-Aldrich, catalog no: T5580) and measured for an additional 30 minutes. The results were calculated as RFU per 30,000 cells.

[2] = tested on: eIF2α phosphorylation in HEK 293 cells; details: for concentration of maximal effect on reducing eIF2α phosphorylation: cells expressing Htt96Q
Procedure: Transfections of HEK 293 cells were carried out according to the calcium phosphate method. STHdh^Q7/7 cells are a murine striatal cell line with a stable knock-in of the full-length wild type (WT) human Htt containing a polyglutamine stretch of 7 glutamines (Trettel et al. 2000). […] No cell line used is listed as a commonly misidentified cell line. Cell lines were not authenticated. To reduce any risk of cross-contamination they were grown for a limited number of passages. Transient transfections of NIH 3T3 and STHdh^Q7/7 cells were performed using an MP-100 Microporator (Digital Bio) or ViaFect™ Transfection Reagent (Cat.No. E4981) (Promega), according to the manufacturer's protocols.
Cells were lysed in PBS containing 1% Triton X-100, 0.5% sodium deoxycholate with protease inhibitors and centrifuged to pellet insoluble aggregates, debris and nuclei. Phosphatase inhibitor cocktail 2 and 3 and 10 mM […] phosphate were added to the lysis buffer to inhibit phosphatases for detection of phosphorylated proteins. Supernatants were separated from pellets and incubated in loading buffer for 5 min at 100° C., pellets were incubated for 10 min at 100° C. After SDS-PAGE and transfer to nitrocellulose membrane, blocking was done in 5% low-fat milk and 0.1% Tween-20 in PBS for 1 h. Incubation with the primary antibody was overnight at 4° C. and after three washes in 0.1% Tween-20 in PBS, incubation with the appropriate secondary antibody was for 1 h at room temperature. After washing, enhanced chemiluminescence assay was performed and the membrane was exposed and quantified in a Bio-Rad ChemiDocXRS Imaging System (Bio-Rad, Hercules, CA).

[3] = tested on: cortico-striatal co-cultures (YAC128); details: Y128, 1 μM, n=4
Procedure: For cortico-striatal co-cultures, brains were removed and transferred to Hibernate E medium (Thermo Fisher Sci., catalog no: A1247601) for up to 24 h. […] The cortex and striatum were micro-dissected in ice-cold Hank's balanced salt solution (HBSS; Gibco), then diced and pooled per genotype. […] The dissociated tissues were centrifuged at 145×g for 5 min and the pellet was then triturated with a pipette five to six times. […] The cells were fed with ⅓ volume fresh medium every fifth day.
The stained cells were washed twice with PBS and fixed with ice-cold methanol for 15 min at room temperature. Mitochondria were visualized using the SP5 confocal microscope (Leica). 8 random areas were sampled. Circularity was determined using ImageJ with an internal plugin.

[4] = tested on: WT and YAC128 striatal neurons
Procedure: Briefly, plasmid was diluted in TE (in mM: 1 Tris-HCl pH 7.3, 1 mM EDTA), followed by the addition of CaCl2 (in mM: 2.5 CaCl2 in 10 HEPES, pH 7.2). The DNA solution was carefully added to 2×HEBS (in mM: 12 dextrose, 50 HEPES, 10 KCl, 280 NaCl and 1.5 Na2HPO4·2H2O, pH 7.2) while bubbling air through the solution. The mixture was then incubated for 25 min at room temperature. The precipitates were added dropwise to the coverslips in Neurobasal medium and incubated for 80 minutes at 37° C. The DNA-Ca^2+-phosphate precipitates were dissolved with freshly-made dissolution medium (Neurobasal medium with 20 mM HEPES, pH 6.8) and incubated for 7 min at room temperature. The transfected neurons were then washed with Neurobasal medium and transferred back to their original dishes containing conditioned culture medium until DIV12.
MitoDsRed-transfected striatal neurons were fixed with 4% paraformaldehyde (pre-warmed at 37° C.) for 20 minutes, permeabilized in 0.2% Triton X-100 in PBS for 2 minutes and blocked for 1 hour at room temperature in 3% (w/v) BSA in PBS. […] Confocal images were obtained as stacks, at 0.46 μm intervals along the z axis, using a Plan-Apochromat/1.4NA 63× lens on an Axio Observer.Z1 confocal microscope (Zeiss Microscopy, Germany) with Zeiss LSM 710 software. FIJI (ImageJ, National Institute of Health, USA) was used for image analysis. […] To optimally resolve individual mitochondria, a threshold was applied followed by the Analyze Particles function to trace mitochondrial outlines. For S1R and IP3R3 fluorescence, a threshold was set similarly to the one described above, and Integrated Density was obtained. S1R and IP3R3 Integrated Density was calculated inside of mitochondrial ROIs selection to obtain ER co-localization with mitochondria.

[5] = YAC128 striatal neurons, 1 μM, 24 h

With CCCN1CCC(c2cccc(S(C)(=O)=O)c2)CC1 [Pridopidine, 4-[3-(methylsulfonyl)phenyl]-1-propyl-piperidine] the eIF2α-P levels ([1]; S1R expressing control clone expressing Htt96Q) was “significantly reduces eIF2α-P levels”, the “concentration of maximal effect on eIF2α phosphorylation” value ([1]; control clone expressing myc-Htt96Q) was 3 µM and the inhibition at 1 µM (HD-NSCs) was roughly 42%. The “reduction of eIF2α-phosphorylation levels compared to the untreated control” value ([2]; HEK293 cells expressing Htt96Q, 24 h, dose-dependent 0 to 3 μM) was 3.6 fold, the “phosphorylation of eIF2α” value ([2]; Htt96Q-expressing cells, high doses of 30 and 150 μM) was “no effect” and the “concentration of maximal effect on reducing eIF2α phosphorylation” value ([2]; after 8 hours) was 3 µM. The “concentration of maximal effect on reducing eIF2α phosphorylation” value ([2]; after 24 hours) was 3 µM, the eIF2α phosphorylation ([2]; cells expressing WT Htt20Q) was “unaffected by pridopidine treatment” and the “TG-induced ER stress as measured by eIF2α-P” value ([2]; cells expressing myc-Htt20Q, 2 μg/ml thapsigargin) was “down to the levels of untreated cells”. For the same molecule, the “mitochondrial morphology (percentage of circular and elongated mitochondria)” value [3] was “corrects Y128 morphology to WT levels”, the “S1R co-localization with mitochondria” value ([4]; Y128 neurons, 1 μM, 24 h, p<0.0001) was “increase in IP3R and S1R co-localization with mitochondria” and the “IP3R co-localization with mitochondria” value ([4]; Y128 neurons, 1 μM, 24 h, p=0.0001) was “increase in IP3R and S1R co-localization with mitochondria”. For the same molecule, the “total S1R protein levels” value ([4]; Y128 striatal neurons) was “restores S1R levels to WT levels”, the “S1R total levels in neurites” value [4, 5] was “significantly increases S1R levels” and the “S1R total levels in soma” value [4, 5] was “significantly increases S1R levels”.
